± gives the expanded uncertainty stated by the source.
Details: Liquid, Vibrating tube method

CCCC[n+]1ccn(C)c1.O=S(=O)([N-]S(=O)(=O)C(F)(F)F)C(F)(F)F
Details	mass density [kg/m3]
293.15 K, 100 kPa	1441.8 ± 12
293.15 K, 101.33 kPa	1441.34 ± 12
293.15 K, 250 kPa	1441.9 ± 12
293.15 K, 500 kPa	1442.1 ± 12
293.15 K, 1000 kPa	1442.4 ± 12
293.15 K, 2000 kPa	1443.2 ± 12
293.15 K, 4990 kPa	1445.4 ± 12
293.15 K, 10000 kPa	1449 ± 12
293.15 K, 15000 kPa	1452.5 ± 12
293.15 K, 20000 kPa	1456 ± 12
293.15 K, 25010 kPa	1459.3 ± 12
293.15 K, 30000 kPa	1462.6 ± 12
293.15 K, 35000 kPa	1465.8 ± 12
293.15 K, 40000 kPa	1469.1 ± 12
293.15 K, 45000 kPa	1472.2 ± 12
293.15 K, 50000 kPa	1475.3 ± 12
293.15 K, 55000 kPa	1478.3 ± 12
293.15 K, 59970 kPa	1481.3 ± 12
294.15 K, 101.33 kPa	1440.37 ± 12
295.15 K, 101.33 kPa	1439.4 ± 12
296.15 K, 101.33 kPa	1438.43 ± 12
297.15 K, 101.33 kPa	1437.46 ± 12
298.15 K, 101.33 kPa	1436.5 ± 12
299.15 K, 101.33 kPa	1435.53 ± 12
300.15 K, 101.33 kPa	1434.57 ± 11
301.15 K, 101.33 kPa	1433.61 ± 11
302.15 K, 101.33 kPa	1432.64 ± 11
303.15 K, 100 kPa	1432.3 ± 12
303.15 K, 101.33 kPa	1431.69 ± 11
303.15 K, 250 kPa	1432.4 ± 12
303.15 K, 500 kPa	1432.6 ± 12
303.15 K, 1000 kPa	1432.9 ± 12
303.15 K, 2000 kPa	1433.7 ± 12
303.15 K, 5000 kPa	1436 ± 12
303.15 K, 10000 kPa	1439.7 ± 12
303.15 K, 15000 kPa	1443.3 ± 12
303.15 K, 20000 kPa	1446.8 ± 12
303.15 K, 25000 kPa	1450.2 ± 12
303.15 K, 30000 kPa	1453.6 ± 12
303.15 K, 34990 kPa	1456.9 ± 12
303.15 K, 40000 kPa	1460.2 ± 12
303.15 K, 45010 kPa	1463.4 ± 12
303.15 K, 50000 kPa	1466.5 ± 12
303.15 K, 54990 kPa	1469.6 ± 12
303.15 K, 60010 kPa	1472.7 ± 12
304.15 K, 101.33 kPa	1430.73 ± 11
305.15 K, 101.33 kPa	1429.77 ± 11
306.15 K, 101.33 kPa	1428.82 ± 11
307.15 K, 101.33 kPa	1427.86 ± 11
308.15 K, 101.33 kPa	1426.9 ± 11
309.15 K, 101.33 kPa	1425.95 ± 11
310.15 K, 101.33 kPa	1425 ± 11
311.15 K, 101.33 kPa	1424.05 ± 11
312.15 K, 101.33 kPa	1423.1 ± 11
313.15 K, 100 kPa	1422.8 ± 11
313.15 K, 101.33 kPa	1422.15 ± 11
313.15 K, 250 kPa	1422.9 ± 11
313.15 K, 500 kPa	1423.1 ± 11
313.15 K, 1000 kPa	1423.5 ± 11
313.15 K, 2000 kPa	1424.3 ± 11
313.15 K, 5000 kPa	1426.6 ± 11
313.15 K, 10000 kPa	1430.4 ± 12
313.15 K, 15010 kPa	1434.1 ± 12
313.15 K, 20010 kPa	1437.7 ± 12
313.15 K, 25000 kPa	1441.2 ± 12
313.15 K, 30000 kPa	1444.7 ± 12
313.15 K, 34990 kPa	1448 ± 12
313.15 K, 40000 kPa	1451.4 ± 12
313.15 K, 45010 kPa	1454.6 ± 12
313.15 K, 50010 kPa	1457.9 ± 12
313.15 K, 55000 kPa	1461 ± 12
313.15 K, 60000 kPa	1464.1 ± 12
314.15 K, 101.33 kPa	1421.2 ± 11
315.15 K, 101.33 kPa	1420.25 ± 11
316.15 K, 101.33 kPa	1419.3 ± 11
317.15 K, 101.33 kPa	1418.36 ± 11
318.15 K, 101.33 kPa	1417.41 ± 11
319.15 K, 101.33 kPa	1416.47 ± 11
320.15 K, 101.33 kPa	1415.53 ± 11
321.15 K, 101.33 kPa	1414.58 ± 11
322.15 K, 101.33 kPa	1413.64 ± 11
323.15 K, 100 kPa	1413.5 ± 11
323.15 K, 101.33 kPa	1412.7 ± 11
323.15 K, 250 kPa	1413.6 ± 11
323.15 K, 500 kPa	1413.8 ± 11
323.15 K, 1010 kPa	1414.2 ± 11
323.15 K, 2000 kPa	1415 ± 11
323.15 K, 4990 kPa	1417.4 ± 11
323.15 K, 10010 kPa	1421.3 ± 11
323.15 K, 14990 kPa	1425.1 ± 11
323.15 K, 20010 kPa	1428.8 ± 12
323.15 K, 24990 kPa	1432.4 ± 12
323.15 K, 30010 kPa	1435.9 ± 12
323.15 K, 35010 kPa	1439.4 ± 12
323.15 K, 40000 kPa	1442.8 ± 12
323.15 K, 45000 kPa	1446.1 ± 12
323.15 K, 50000 kPa	1449.4 ± 12
323.15 K, 55000 kPa	1452.6 ± 12
323.15 K, 60000 kPa	1455.8 ± 12
324.15 K, 101.33 kPa	1411.76 ± 11
325.15 K, 101.33 kPa	1410.82 ± 11
326.15 K, 101.33 kPa	1409.88 ± 11
327.15 K, 101.33 kPa	1408.94 ± 11
328.15 K, 101.33 kPa	1408 ± 11
329.15 K, 101.33 kPa	1407.06 ± 11
330.15 K, 101.33 kPa	1406.12 ± 11
331.15 K, 101.33 kPa	1405.19 ± 11
332.15 K, 101.33 kPa	1404.25 ± 11
333.15 K, 100 kPa	1404.2 ± 11
333.15 K, 101.33 kPa	1403.32 ± 11
333.15 K, 250 kPa	1404.3 ± 11
333.15 K, 500 kPa	1404.5 ± 11
333.15 K, 1010 kPa	1404.9 ± 11
333.15 K, 2000 kPa	1405.8 ± 11
333.15 K, 4990 kPa	1408.2 ± 11
333.15 K, 10000 kPa	1412.3 ± 11
333.15 K, 14990 kPa	1416.2 ± 11
333.15 K, 20010 kPa	1420 ± 11
333.15 K, 25000 kPa	1423.6 ± 11
333.15 K, 30010 kPa	1427.3 ± 12
333.15 K, 34990 kPa	1430.8 ± 12
333.15 K, 40010 kPa	1434.3 ± 12
333.15 K, 45000 kPa	1437.6 ± 12
333.15 K, 50000 kPa	1441 ± 12
333.15 K, 54990 kPa	1444.3 ± 12
333.15 K, 60000 kPa	1447.5 ± 12
334.15 K, 101.33 kPa	1402.39 ± 11
335.15 K, 101.33 kPa	1401.45 ± 11
336.15 K, 101.33 kPa	1400.52 ± 11
337.15 K, 101.33 kPa	1399.59 ± 11
338.15 K, 101.33 kPa	1398.66 ± 11
339.15 K, 101.33 kPa	1397.73 ± 11
340.15 K, 101.33 kPa	1396.8 ± 11
341.15 K, 101.33 kPa	1395.87 ± 11
342.15 K, 101.33 kPa	1394.94 ± 11
343.15 K, 100 kPa	1395 ± 11
343.15 K, 101.33 kPa	1394.01 ± 11
343.15 K, 250 kPa	1395.1 ± 11
343.15 K, 500 kPa	1395.3 ± 11
343.15 K, 1000 kPa	1395.7 ± 11
343.15 K, 2000 kPa	1396.6 ± 11
343.15 K, 4990 kPa	1399.1 ± 11
343.15 K, 10010 kPa	1403.3 ± 11
343.15 K, 14910 kPa	1407.2 ± 11
343.15 K, 20000 kPa	1411.2 ± 11
343.15 K, 24990 kPa	1414.9 ± 11
343.15 K, 30010 kPa	1418.7 ± 11
343.15 K, 34990 kPa	1422.3 ± 11
343.15 K, 39990 kPa	1425.8 ± 12
343.15 K, 45000 kPa	1429.3 ± 12
343.15 K, 50000 kPa	1432.7 ± 12
343.15 K, 55000 kPa	1436.1 ± 12
343.15 K, 60000 kPa	1439.4 ± 12
344.15 K, 101.33 kPa	1393.09 ± 11

Source: the NIST ThermoML archive (doi:10.1016/j.fluid.2010.03.010)
